One assay deals with Ucp1. The experiment in a line: UCP1 luciferase assay (Ucp1 up-regulation in differentiated inguinal adipocytes of Ucp1-luciferase knock-in mice). The class given is cell-based. The following applies: Mus musculus, Adipocyte, 48 h, 2 days treatment, luciferase activity, read-out: Ucp1 activation fold/corresponding concentration. As for the experimental part: TEST EXAMPLE 1 UCP1 Luciferase Assay
Evaluating Compounds that Induce Ucp1 Up-Regulation
Ucp1-luciferase knock-in mice will be housed in cages and fed on standard chow diets (the detailed procedures please see reference 14). The 8-week-old mice will be killed by the cervical dislocation and put into 75% alcohol for 5 minutes. The inguinal adipose tissue will be dissected out and transferred to the three 10-cm petri dishes and washed with PBS for three times. The adipose tissue will be dissected and minced on a 10-cm petri dish for several minutes and then pipetted into 20 ml 0.1% collagenase solution in 50 ml conical tubes and digested at 37° C. for 1 hour. Next, 20 ml culture medium will be added to terminate the digestion and centrifuged for 10 minutes at 1000 rpm respectively. The supernatants will be removed and the pellets re-suspended in 10 mL culture medium and plated into 10-cm plates. The cells will be left to adhere to the plates overnight and the culture medium will be changed every other day. The confluent cells will be trypsinized, counted and plated to 24-well plate (5×10^4 cells/well). The cells will be washed and re-fed the next day (as day −2). Two days later (day 0), the cells will usually become confluent and be induced to differentiate with MDIR medium. On day 2, the medium will be changed to IR medium and re-fed every 2 days. Complete differentiation is usually achieved by day 10. On day 10, the medium will be changed to the culture medium of 10% FBS/DMEM with indicated drugs along with the positive and negative controls for 2 days. The media will be removed and the cells washed with 1 ml PBS per well three times. Then 100 μl lysis buffer will be used to lyse the cells at 4° C. for 1 hour. 30 μl culture medium, 30 μl cell lysates and 60 μl Steady-Glo® Reagent were added to a well of 96-well-plate and the luminescence will be measured using a luminometer. The protein concentration will be determined using 20 μl cell lysates and specific activity of luciferase will be tabulated and data analyzed.

In the next assay the test system is white adipose tissue. In words: High fat diet induced obesity mouse model; hematoxylin and eosin staining and UCP1 immunochemistry of adipose tissue. The class given is in vivo, mice. The following applies: 50 mg/kg daily gavage, compared with control group. As for the experimental part:
8-week-old male mice (57BL/6J) were housed in metabolism cages and maintained on a 12 h lightdark cycle at 23° C. and fed high fat diet (HFD) (21.9 kJ/g, 60% of energy as fat, 20% of energy as protein, 20% of energy as carbohydrate; D12492; Research Diet, New Brunswick, N.J., USA) for 8 weeks. Then, diets induced obese mice were randomized into two groups according to glucose levels and body weight and gavaged with daily indicated drugs (50 mg/kg) or vehicle. Food intake and body weight was measured weekly. All experiments with animals were approved by the Animal Care and Use Committee of Guangzhou Institute of Biomedicine and Health, Chinese Academy of Sciences.
Hematoxylin and eosin staining was performed as the standard protocol (see reference 15). As to the results, please see FIG. 1 (left panel) using compound 1 as the test compound.
Wash sections in dH2O three times for 5 minutes each. Incubate sections in 3% hydrogen peroxide for 10 minutes. Wash sections in dH2O twice for 5 minutes each, and then wash sections in wash buffer for 5 minutes. Block each section with 100-400 μl blocking solution for 1 hour at room temperature. Remove blocking solution and add 100-400 μl primary UCP1 antibody to each section. Incubate overnight at 4° C. Remove antibody solution and wash sections in wash buffer three times for 5 minutes each. […]

Take `COc1ccc(-c2csc(Nc3ccccn3)n2)cc1OC` [Compound 1, 4-(3,4-dimethoxyphenyl)-N-(pyridin-2-yl)thiazol-2-amine]: the fold induction at 3 µM in the assay on Ucp1 came out at 5.2. For the same compound, in the assay on white adipose tissue (16-week-old obese mice (57BL/6J) induced by high fat diet for 8 weeks), the “browning of adipose tissue (hematoxylin and eosin staining and UCP1 immunochemistry)” value is listed as “promotes browning of adipose tissue”. For the same compound, the “adipose tissue cell size and cell number” value with white adipose tissue (16-week-old obese mice induced by high fat diet for 8 weeks) was “reduced cell size and increased cell number”.
As to `Cc1ccc(-c2csc(Nc3ccccn3)n2)cc1` [Compound 21, N-(pyridin-2-yl)-4-p-tolylthiazol-2-amine], the fold induction at 3 µM in the assay on Ucp1 came to 2.9.
On to `CCCC(=O)Nc1ccc(-c2csc(Nc3ccccn3)n2)cc1` [Compound 39, N-(4-(2-(pyridin-2-ylamino)thiazol-4-yl)phenyl)butyramide], for which the fold induction at 1 µM in the assay on Ucp1 stood at 3.4.
As for `O=C(Nc1ccncc1)c1ccc(-c2csc(Nc3ccccn3)n2)cc1` [Compound 65, 4-(2-(pyridin-2-ylamino)thiazol-4-yl)-N-(pyridin-4-yl)benzamide], the fold induction at 3 µM with Ucp1 amounted to 1.1.
As for `c1ccc(Nc2nc(-c3cccnc3)cs2)nc1` [Compound 9, N-(pyridin-2-yl)-4-(pyridin-3-yl)thiazol-2-amine], in the assay with Ucp1, the fold induction at 1 µM stood at 3.6.
As for `CC(C)(C)CNc1ccc(-c2csc(Nc3ccccn3)n2)cc1` [Compound 56, 4-(4-(neopentylamino)phenyl)-N-(pyridin-2-yl)thiazol-2-amine], the fold induction at 3 µM in the assay on Ucp1 is 2.3.
